This is an account of results in a melting point compilation (Tetko et al.).

As usually defined, the melting point is the temperature of the solid-liquid transition.

`CC(C)Cn1[nH]ccc1=NC(=O)OCC(F)(F)F`: the melting point lay within 63 to 65 °C. The figure for `Cc1cc(Br)cc2c(O)c(C#N)cnc12` is 349 to 351 °C; for `CC(C)COc1ncccc1C(=O)O` it is 84 to 86 °C; for `O=C(Cc1nc2ccccc2s1)Nc1ccc(Cl)cc1` it is 164 to 166 °C. On to `Cc1sc2nc(N)[nH]c(=O)c2c1C`, for which the melting point is 353 to 355 °C.

Regarding `OC(c1ccc(Br)cc1)C(F)(F)F` (stereo not given), the melting point is 50 to 52 °C. Then `O=S1(=O)CCC(O)c2ccccc21` (stereo not given), with 94 to 96 °C. Turning to `Cc1ccnc(-c2ccc(N)cc2)n1`, the melting point was in the range of 118 to 120 °C. For the compound `Nc1ccc(N2CCC(O)CC2)cc1`, the melting point lay within 171 to 173 °C.

Consider `CCOc1c(C#N)cnc2ccccc12`, for which the melting point lay in the range of 98 to 100 °C. `O=C(O)CCNS(=O)(=O)c1cccs1` returned a melting point of 143 to 145 °C. Consider `CC(=O)Nc1cc(NC(C)=O)cc(C(=O)O)c1`, for which the melting point was 187 to 189 °C.

The compound `CCOC(=O)C1CCCNC1=O` (stereo not given) displayed a melting point of 80 to 82 °C. `CC(C)C(N)c1nc(-c2nnc[nH]2)no1` (stereo not given) yielded a melting point of 210 to 212 °C.

The compound `COC(=O)c1cc(Cl)c2cc(Br)ccc2n1` showed a melting point of 163 to 165 °C. The figure for `Cc1oc2ccccc2c1C=O` is 69 to 71 °C; for `COC(=O)/C=C1\SCC(=O)N1CCCCl` it is 95 to 97 °C. The figure for `CSc1snc(O)c1C#N` is 230 to 232 °C; for `CCn1cc(C=O)c2ccccc21` it is 104 to 106 °C; for `Cn1c(Cl)cnc1CC#N` it is 142 to 144 °C. In turn, `NNc1ccc(S(=O)(=O)Nc2ccccn2)cn1` showed a melting point of 218 to 220 °C. Then `NC(=O)c1ccc(CCl)cc1`, with 178 to 180 °C; and `CCc1nc2ccccc2n1CC(=O)O`, with 232 to 234 °C; and `Cc1ccc(C(=O)O)cc1S(=O)(=O)N1CCOCC1`, with 176 to 178 °C. Compound `OCc1c(Cl)nc(Cl)n1-c1ccccc1` showed a melting point of 139 to 141 °C. `O=C(O)/C=C/c1cc(C(F)(F)F)ccc1Cl` displayed a melting point of 147 to 149 °C. Then `COc1cc(C=O)ccc1Oc1ccc(S(=O)(=O)N2CCCCC2)cc1[N+](=O)[O-]`, with 173 to 175 °C; and `O=C(O)c1c[nH]c2c(Br)ccc(Br)c2c1=O`, with 271 to 273 °C; and `NNC(=O)C1CCS(=O)(=O)C1` (stereo not given), with 71 to 73 °C. As to `c1ccc(NCc2cccc3ccccc23)cc1`, the melting point is 54 to 56 °C. Compound `COc1ccc(S(=O)(=O)N(C)c2ccc(O)cc2)cc1` gave a melting point of 88 to 90 °C. `CCc1ccc(-c2csc(NC(=O)C(C)Cl)n2)cc1` (stereo not given) returned a melting point of 108 to 110 °C. The figure for `NC(=NO)c1ccccc1CN1CCC(O)CC1` is 137 to 139 °C; for `O=C(O)CCCOc1cccc(Br)c1` it is 50 to 52 °C; for `O=C(O)CN(CCCCCCN(CC(=O)O)CC(=O)O)CC(=O)O` it is 237 to 241 °C. The figure for `O=C1CCOc2cc3c(cc21)OCO3` is 96 to 98 °C. Then `Cc1nnc(S)n1-c1ccccc1`, with 224 to 226 °C; and `Nc1onc(-c2ccccc2)c1-c1ccccc1`, with 144 to 146 °C; and `O=C(O)c1cc(C2CC2)nc2c1cnn2C1CCCCC1`, with 210 to 212 °C. `CC(C)(C)OC(=O)Nc1cc2c(cc1N)OCO2` had a melting point of 93 to 95 °C. Then `OCc1cn(-c2ccccc2)nc1-c1ccccc1`, with 91 to 93 °C. As for `CN1CC(=O)Nc2ccccc2C1=O`, the melting point was 249 to 251 °C.

`CN(C)S(=O)(=O)c1ccc2[nH]c(=O)oc2c1` displayed a melting point of 202 to 204 °C. The figure for `O=C(O)COc1ccc(Br)cc1Cl` is 146 to 148 °C; for `O=C(O)c1cc(/C=C/c2cccc(Br)c2)nc2ccc(Br)cc12` it is 307 to 309 °C; for `O=C(O)C1CCN(C(=O)CSc2nnc(-c3ccccc3)o2)CC1` it is 104 to 106 °C. The figure for `Cc1ccc2cccnc2c1S(N)(=O)=O` is 170 to 172 °C; for `COc1ccc(N)cc1S(=O)(=O)Nc1ccc(Cl)cc1` it is 105 to 107 °C; for `N#Cc1cccc(S(=O)(=O)Nc2cn[nH]c2)c1` it is 162 to 164 °C. Then `Cc1ccc(CNC(=O)C(C#N)=CN(C)C)cc1`, with 135 to 137 °C. On to `CN1CCc2ccc(C(=O)O)cc21`, for which the melting point fell in the range of 165 to 167 °C. In turn, `Cc1ccc2ncnc(Cl)c2c1` displayed a melting point of 105 to 107 °C. The figure for `O=C(O)C1CCN(c2ccc(Cl)cn2)CC1` is 152 to 154 °C; for `Cc1ccc(Oc2ccc(NC(=O)CCl)cc2)cc1` it is 155 to 158 °C. The figure for `CC(=O)c1ccc(NS(=O)(=O)c2ccc(Cl)cc2)cc1` is 132 to 134 °C; for `Nc1cc(F)ccc1S(N)(=O)=O` it is 129 to 131 °C; for `COc1ccc(C(=O)O)nn1` it is 139 to 141 °C.

The compound `CC(=O)C(C#N)c1ccc(Cl)cc1` (stereo not given) yielded a melting point of 129 to 131 °C. In turn, `O=S(=O)(Cl)c1cccc2ncccc12` returned a melting point of 121 to 123 °C. `Sc1nnc(NC2CCCCC2)s1` registered a melting point of 144 to 146 °C. `CC(=O)N(C)c1ccccc1C(=O)O` registered a melting point of 196 to 198 °C. The figure for `CC(=O)Nc1cnc(NC(C)=O)s1` is 245 to 247 °C; for `O=C(O)c1nnn(-c2ccc(F)cc2)c1C(F)(F)F` it is 146 to 148 °C. The figure for `Brc1ccc(NCc2ccsc2)cc1` is 44 to 46 °C. `CCOC(C(=O)O)(c1ccccc1)c1ccccc1` displayed a melting point of 113 to 115 °C.

As for `Cc1ccc(N)cc1S(=O)(=O)N1CCCCCC1`, the melting point is 44 to 46 °C. Then `Clc1nc(C=Cc2ccc(Br)cc2)nc2sc3c(c12)CCCC3`, with 168 to 170 °C.

Compound `COc1ncccc1C(N)=S` came in with a melting point of 114 to 116 °C. The figure for `ClCc1cc(Br)ccc1Cl` is 47 to 49 °C; for `N#Cc1ccc(F)c(Cn2ccnc2)c1` it is 91 to 93 °C. For `Cc1cc(Cl)c2c(c1)C(=O)C(=O)N2`, the melting point is 173 to 175 °C. Then `COc1cc(Cl)c(C)cc1NC(=O)CCl`, with 167 to 169 °C; and `Cc1cc(C)c(C=O)cc1C`, with 41 to 46 °C; and `Nc1c(C(=O)O)nnc2ccccc12`, with 257 to 259 °C. Compound `O=c1[nH]cnc2ccc([N+](=O)[O-])cc12` came in with a melting point of 284 to 286 °C. The figure for `COc1ccc(C(C)=O)cc1CSCC(=O)O` is 106 to 108 °C. Compound `CC1(c2ccc(F)cc2F)NC(=O)NC1=O` (stereo not given) came in with a melting point of 194 to 196 °C. In turn, `CCOC(=O)/C(=C(\O)CCl)c1nc(C)cs1` came in with a melting point of 76 to 78 °C. Compound `CCOc1ccc(S(=O)(=O)Cl)cc1` had a melting point of 40 to 45 °C. The figure for `N#Cc1cc(Cl)ccc1OCC(F)(F)F` is 66 to 68 °C.

`Cc1ccc(CN)c(S(C)(=O)=O)c1`: the melting point is 32 to 34 °C.

Regarding `CSc1[nH]c(=O)c(C(=O)O)cc1C#N`, the melting point was 254 to 256 °C.

`Nc1nnc(-c2ccc([N+](=O)[O-])o2)o1` came in with a melting point of 259 to 261 °C. Then `O=C(O)c1cc(/C=C/c2cccc(C(F)(F)F)c2)nc2ccc(Br)cc12`, with 310 to 312 °C. In turn, `CC(C)=CCSc1ccccc1C(=O)O` registered a melting point of 138 to 140 °C.
